According to patent US8158809B2 (priority 2003, dated 2012):

Tested on: HCT116
Assay: Cell colony formation assay
Type: cell-based
Details: 72 hours with drug, colonies counted after 7 days
Experimental: This example provides directions for growing cells and testing compounds of the invention for their effect on the growth of the cells. All cells were purchased from DCTDC Tumor Repository, NCI, NIH.
The cells were incubated in a CO2 incubator at 37° C. for 5 hours for attachment to the bottom of Petri dishes. Drugs were made fresh in medium at ten times the final concentration, and then 0.3 ml of this stock solution was added to the 2.7 ml of medium in the dish. The cells were then incubated with drugs for 72 hours at 37° C. At the end of the incubation the drug-containing media were decanted, the dishes were rinsed with 4 ml of Hank's Balance Salt Solution (HBSS), 5 ml of fresh medium was added, and the dishes were returned to the incubator for colony formation. The cell colonies were counted using colony counter after incubation for 7 days for HCT116 cells and PC-3 cells and 8 days for VM46 cells, respectively. Cell survival (%) was calculated, as shown in Table I below for HCT 116 cells.

## COc1cc([C@@H]2c3cc4c(cc3[C@H](OC(=O)C(C)ON=C3c5cc([N+](=O)[O-])cc([N+](=O)[O-])c5-c5c3cc([N+](=O)[O-])cc5[N+](=O)[O-])[C@H]3COC(=O)[C@H]23)OCO4)cc(OC)c1OC (stereo partly drawn) [Compound 000222, Podophyllotoxin-4-O-ester of (+)-2-(2,4,5,7-tetranitro-9-fluorenylideaminooxy)-propionic acid]
10 nM
  In Vitro Efficacy: Survival (%) of HCT116: 100%
100 nM
  In Vitro Efficacy: Survival (%) of HCT116: 1.46%
1000 nM
  In Vitro Efficacy: Survival (%) of HCT116: 0%
